Reference: patent US20060167229A1, “Biologically active peptide conjugates” (priority 2002, published 2006)
“Also recorded” adds a separate entry of the source. Marks after values point to notes of the source that are not given here. Ends that are not written are not given here.

Assays:
Assay type in all cases: in vivo, BALB/c mice
[1] = tested on: anti-SRBC antibody; assay: Sheep Red Blood Cell (SRBC) hemolysis test, antibody formation; conditions: for anti-SRBC antibody formation, X ± SD (Unit): healthy mice, SRBC day 12 (IFN-γ, IL-2 3×10^5 IU/kg/day), saline 32 ± 7; for effect on the synthesis of anti-SRBC antibody upon the antigenic challenge (summary): statistically significant difference from saline in any of the dosage groups 0.5-500 μg/kg/day
Procedure, shortened: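 Mice immunized intraperitoneally with 0.2 ml SRBC on day 12; serum taken on day 16, diluted 500-fold. Serum incubated with 2% SRBC and guinea pig complement 10 min at 37° C; released haemoglobin read at OD540 with Drabkin solution. Serum index = (sample OD540 ÷ reference OD540) × 500.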

[2] = tested on: thymus gland; assay: Immunity organ weight test, thymus gland index; conditions: for weight of thymus gland (thymus gland index), X ± SD (%): healthy mice, saline 0.12 ± 0.02; for effect on the weight of the thymus gland (summary): statistically significant difference from saline in any of the dosage groups 0.5-500 μg/kg/day
Protocol: One day after the last test substance administration (day 16), the liver, spleen, and thymus gland were separated and blotted dry with filter paper and weighed. The phagocytosis index α was calculated as below: α=(^3√{square root over ( )}K)(W÷WLS)
Thymus gland index (%)=(thymus weight/body weight)×100%

[3] = tested on: mononuclear phagocyte; assay: Carbon particle clearance test, phagocytosis function; parameters: key to X ± SD (phagocytotic index): α = cube root of K × (body weight ÷ liver+spleen weight); conditions: for X ± SD (phagocytotic index): healthy mice, saline 5.1 ± 0.6; for effect on the phagocytotic activity of mononuclear phagocyte (summary): statistically significant difference from saline in any of the dosage groups 0.5-500 μg/kg/day
Procedure, shortened: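 Clearance index K came from OD680 of blood sampled 1 and 5 min after tail-vein India ink ([…], diluted 5×), given on day 16. Phagocytic index α combined K with liver, spleen […] weights taken the same day.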

[4] = tested on: NK cell; assay: NK cell cytotoxicity activity test (spleen cells of treated mice against YAC-1 target cells, MTT); conditions: for NK cell cytotoxic activity, X ± SD (%): healthy mice; for effect on the cytotoxic activity of NK cells (summary): statistically significant difference from saline in any of the dosage groups 0.5-500 μg/kg/day
Procedure, shortened: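 Mice (10 per group) dosed i.p. once daily for 15 days in saline; spleen cells harvested the next day. Splenocytes (4×10^6/ml) co-cultured with YAC-1 targets (1×10^5/ml), in triplicate per mouse. Viability by MTT (1 mg/ml, 4 h, 37 °C), read at OD570 against 630 nm.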

[5] = peptide 5 μg/kg/day i.p. 15 days
[6] = peptide 50 μg/kg/day i.p. 15 days
[7] = peptide 500 μg/kg/day i.p. 15 days
[8] = peptide 5 μg/kg/day i.p. 15 days (IFN-γ, IL-2 3×10^5 IU/kg/day)
[9] = peptide 500 μg/kg/day i.p. 15 days (IFN-γ, IL-2 3×10^5 IU/kg/day)
[10] = peptide 50 μg/kg/day i.p. 15 days (IFN-γ, IL-2 3×10^5 IU/kg/day), saline 56 ± 8
[11] = peptide 500 μg/kg/day i.p. 15 days (IFN-γ, IL-2 3×10^5 IU/kg/day), saline 63 ± 9
[12] = peptide 0.5 μg/kg/day i.p. 15 days
[13] = peptide 50 μg/kg/day i.p. 15 days (IFN-γ, IL-2 3×10^5 IU/kg/day)
[14] = peptide 5 μg/kg/day i.p. 15 days (IFN-γ, IL-2 3×10^5 IU/kg/day), saline 60 ± 9
[15] = peptide 0.5 μg/kg/day i.p. 15 days (IFN-γ, IL-2 3×10^5 IU/kg/day)

Substance | anti-SRBC antibody formation, X ± SD (Unit) [1, 5] | anti-SRBC antibody formation, X ± SD (Unit) [1, 6] | anti-SRBC antibody formation, X ± SD (Unit) [1, 7] | effect on the synthesis of anti-SRBC antibody upon the antigenic challenge (summary) [1] | weight of thymus gland (thymus gland index), X ± SD (%) [2, 8] | weight of thymus gland (thymus gland index), X ± SD (%) [2, 9] | effect on the weight of the thymus gland (summary) [2] | X ± SD (phagocytotic index) [3, 8] | effect on the phagocytotic activity of mononuclear phagocyte (summary) [3] | NK cell cytotoxic activity, X ± SD (%) ([4]; peptide 0.5 μg/kg/day i.p. 15 days (IFN-γ, IL-2 3×10^5 IU/kg/day), saline 58 ± 7) | NK cell cytotoxic activity, X ± SD (%) [4, 10] [%] | NK cell cytotoxic activity, X ± SD (%) [4, 11] [%] | effect on the cytotoxic activity of NK cells (summary) [4] | anti-SRBC antibody formation, X ± SD (Unit) [1, 12] | weight of thymus gland (thymus gland index), X ± SD (%) [2, 13] | NK cell cytotoxic activity, X ± SD (%) [4, 14] [%] | X ± SD (phagocytotic index) [3, 15] | X ± SD (phagocytotic index) [3, 13] | X ± SD (phagocytotic index) [3, 9] | weight of thymus gland (thymus gland index), X ± SD (%) [2, 15]
Phe Val Asn Asp (FVND; listed as Sus scrofa) [CMS035] | 176 ± 39*^@^ Unit | 97 ± 10*^@^ Unit | 88 ± 16*^@ Unit | enhance | 0.21 ± 0.04 % | 0.21 ± 0.03*^@^ % | increase | 6.9 ± 0.9*^ | enhance | 76 ± 10 | 72 ± 9 | 90 ± 10 | increase |  |  |  |  |  |  | 
Pro Gln Asn Phe (PQNF; printed: Pro Gln Asn Phe) [CMS034] | 172 ± 37*^@^ Unit | 136 ± 11*^@^ Unit |  | enhance; also recorded: inhibit | 0.27 ± 0.06*^@^ % | 0.20 ± 0.05*^ % | increase |  |  |  |  | 85 ± 9 | increase | 20 ± 2 Unit | 0.19 ± 0.04*^ % | 90 ± 5 |  |  |  | 
Pro Ser Ile Vat Gly Arg Pro Arg His Gln Gly Val Met (PSIVGRPRHQGVM; listed as Sus scrofa) [CMS015] | 94 ± 37*^@ Unit | 54 ± 9*^@ Unit | 136 ± 22*^@^ Unit | enhance; also recorded: inhibit | 0.20 ± 0.08 % |  | increase |  |  |  | 78 ± 8 |  | increase | 13 ± 4 Unit |  |  |  |  |  | 
Tyr Ser Leu (YSL; listed as Sus scrofa) [CMS024] | 171 ± 39*^@^ Unit |  | 75 ± 29*^@ Unit | enhance | 0.23 ± 0.06*^ % |  | increase |  | enhance |  |  | 89 ± 8 | increase | 98 ± 6*^@^ Unit | 0.27 ± 0.02*^@^ % | 78 ± 3 | 6.7 ± 0.5*^ | 6.6 ± 0.7 | 6.4 ± 1.0 | 
VGMGQKDSY | 118 ± 20*^@^ Unit |  | 91 ± 26*^@ Unit |  | 0.24 ± 0.02*^@^ % | 0.19 ± 0.02 % | increase | 6.8 ± 0.6*^ | enhance |  |  |  |  | 12 ± 3 Unit | 0.20 ± 0.03*^@^ % |  |  | 6.7 ± 0.9*^ |  | 
VGMGQKDSYV [CMS020] | 89 ± 24*^@ Unit |  | 155 ± 35*^@^ Unit |  | 0.24 ± 0.07*^@^ % | 0.19 ± 0.04 % | increase |  | enhance |  |  |  | increase | 10 ± 3 Unit | 0.27 ± 0.03*^@^ % | 91 ± 6 |  |  | 6.4 ± 0.6 | 0.23 ± 0.05*^@^ %
